{"source": "patent US20070292351A1", "about": "“Assay for efficacy of histone deacetylase inhibitors” (Methylgene, Inc., priority 2006, published 2007)", "system": "peripheral white blood cells from healthy volunteers", "experiment": "Semi-quantitative PCR of MT3 in peripheral white blood cells treated ex vivo", "format": "cell-based, human", "settings": "24 hr or 48 hr (FIG. 6)", "experimental": "Peripheral white blood cells were isolated from healthy volunteers and treated ex vivo with MGCD0103 at indicated doses for 24 hr or 48 hr. RNA was extracted to monitor MT3 mRNA level by conventional semi-quantitative PCR (normalized to β-actin).\nWhole blood from either consenting healthy volunteers or consenting patients was centrifuged at 2500 rpm for 10 minutes at ambient temperature in a Sorvall RT-7 centrifuge (Mandel Scientific Co., Guelph, Ontario). Plasma was removed and buffy coat was collected. Five volumes of Erythrocyte Lysis Buffer (EL) (Qiagen Canada Inc., Mississauga, Ontario) were added into buffy coat. Buffy coat was incubated on ice for 20 minutes before it was centrifuged at 400 g for 10 minutes at 4° C. Supernatant was removed and buffy coat was washed twice with EL buffer and re-centrifuged. Buffy coat was resuspended in RPMI media and cells were counted with trypan blue exclusion. To isolate PBMCs, buffy coat cells were centrifuged over Lymphoprep (Axis-Shield, 1114544), and any remaining erythrocytes in the sample were lysed by treatment with EL lysis buffer (Qiagen, 79217). The cell pellets are washed and then re-suspended in RPMI containing 10% FBS.\nRNA was extracted from 8×10^6 cells using the Qiagen RNeasy Mini kit (cat#74106, Qiagen, Missisauga Ont.) following the manufacturer's instructions. […]"}
{"smiles": "Nc1ccccc1NC(=O)c1ccc(CNc2nccc(-c3cccnc3)n2)cc1", "note": "[MGCD0103]", "values": [{"measurement": "Induction of MT3 transcription ex vivo", "result": "time-dependent and dose-dependent"}]}
